system: beta-TC6 cells; test: Insulin HTRF assay (relative activity Ar) in beta-TC6 cells; assay type: cell-based, mouse; conditions: Mus musculus, Beta-TC6, 4 h, insulin HTRF, supernatant of beta-TC6 cells, incubation with test compound at 37°C for 2, 3, 4h; read-out: Ar (relative activity)
Text: For further screening of compounds derived from compounds described above for their ability to regulate insulin release an insulin HTRF® (Homogeneous Time-Resolved Fluorescence; Cisbio International, France) was used. This assay is based on two antibodies against insulin binding to different epitopes of insulin. One of these antibodies is coupled to Europium (Ab-Eu-Cryptate) and the other one to the fluorophore XL665 (Ab-XL665). If the insulin is secreted into the supernatant of cell culture, both antibodies can bind to insulin and come therefore into close proximity, which allows upon excitation that energy transfer between (FRET) the long-life fluorescent donor Europium (cryptate) and the acceptors XL665. FRET increases proportionally with insulin concentration.
The automated assay protocol is as follows: • On day 1, 15k beta-TC6 cells per well were seeded for 24 or 48 h in 50 µL complete medium. On day 2 or respective on day 3, the medium is removed and cells are washed with 60 µL 1xPBS and 20 µL induction buffer is added using BioTek washer. Subsequently, 10 µL Sunitininb (5 -µM f.c.) or the test compound in induction buffer; 0.5% f.c. DMSO (CyBi-well) is transferred to the cells. The cells are then incubated at 37°C for 2, 3, 4h.
First 10 µL supernatant is transferred from the cell plates in HTRF plates (CyBi-well). 10 µL of 0, 1, 2, and 4 ng/ml insulin standard controls in assay medium is used as a control. To each well 10 µL of combined 1:25 Ab-XL665 (Acc) and 1:20 Ab-Eu-Cryptate (WellMate) are added and incubated for 120 min at RT in the dark. Finally HTRF is measured on ViewLux ultra high throughput microplate imager (PerkinElmer).
The evaluation software DataFactoty derives relative activities Ar according to the following equation: Ar = (V-R(0%control))/(R(100%control) -R0%control)) × 100 [formula]
The activity of the compounds was classified according to their Ar (relative activity) into the following ranges: […]

SMILES	Emax [%]
CCN(CC)CCNC(=O)c1ccc(Nc2nccc3[nH]c(-c4ccc(C)cc4)nc23)cc1 [Compound 381, N-(2-diethylaminoethyl)-4-[[2-(p-tolyl)-1H-imidazo[4,5-c]pyridin-4-yl]amino]benzamide]	50 to 100
Cn1c(NCc2ccccc2)nc2cnc(-c3ccc(N4CCOCC4)cc3)cc21 [Compound 614, N-benzyl-1-methyl-6-(4-morpholinophenyl)imidazo[4,5-c]pyridin-2-amine]	50 to 100
CNc1nc2cnc(Nc3cccc(Cl)c3)cc2n1Cc1ccc(OC)c(OC)c1 [Compound 666, N6-(3-chlorophenyl)-1-[(3,4-dimethoxyphenyl)methyl]-N2-methyl-imidazo[4,5-c]pyridine-2,6-diamine]	30 to 50
c1ccc(-c2nc3c(NCc4ccncc4)nccc3[nH]2)cc1 [Compound 335, 2-phenyl-N-(4-pyridylmethyl)-1H-imidazo[4,5-c]pyridin-4-amine]	0 to 30
COc1cc(Nc2cc3c(cn2)nc(-c2ccccc2)n3C)cc(OC)c1OC [Compound 701, 1-methyl-2-phenyl-N-(3,4,5-trimethoxyphenyl)imidazo[4,5-c]pyridin-6-amine]	50 to 100
Cn1cc(-c2cc3cnc(Nc4ccc(S(C)(=O)=O)cc4)cc3n2C)cn1 [Compound 152, 1-methyl-2-(1-methylpyrazol-4-yl)-N-(4-methylsulfonylphenyl)pyrrolo[3,2-c]pyridin-6-amine]	> 100
CNc1nc2cnc(Nc3ccc(F)cc3)cc2n1Cc1cccnc1 [Compound 565, N6-(4-fluorophenyl)-N2-methyl-1-(3-pyridylmethyl)imidazo[4,5-c]pyridine-2,6-diamine]	50 to 100
COc1cc(Nc2nccc3[nH]c(-c4cccc(F)c4)nc23)cc(OC)c1OC [Compound 402, 2-(3-fluorophenyl)-N-(3,4,5-trimethoxyphenyl)-1H-imidazo[4,5-c]pyridin-4-amine]	30 to 50
CNc1nc2cnc(Nc3ccc(C(N)=O)cc3)cc2n1-c1cccc(F)c1 [Compound 681, 4-[[1-(3-fluorophenyl)-2-(methylamino)imidazo[4,5-c]pyridin-6-yl]amino]benzamide]	50 to 100
COc1ccc(Nc2cc3c(cn2)nc(-c2ccccc2)n3C)cc1 [Compound 705, N-(4-methoxyphenyl)-1-methyl-2-phenyl-imidazo[4,5-c]pyridin-6-amine]	30 to 50
Cn1c(Nc2ccccc2)nc2cnc(-c3ccc(N4CCOCC4)cc3)cc21 [Compound 630, 1-methyl-6-(4-morpholinophenyl)-N-phenyl-imidazo[4,5-c]pyridin-2-amine]	50 to 100
Cn1c(NCC2CC2)nc2cnc(-c3cccc(Oc4ccccc4)c3)cc21 [Compound 758, N-(cyclopropylmethyl)-1-methyl-6-(3-phenoxyphenyl)imidazo[4,5-c]pyridin-2-amine]	0 to 30
COCCNC(=O)c1cccc(-c2nc3c(Nc4cc(OC)c(OC)c(OC)c4)nccc3[nH]2)c1 [Compound 385, N-(2-methoxyethyl)-3-[4-(3,4,5-trimethoxyanilino)-1H-imidazo[4,5-c]pyridin-2-yl]benzamide]	> 100
Cn1c(NCc2ccccc2)nc2cnc(Nc3cccc(O)c3)cc21 [Compound 622, 3-[[2-(benzylamino)-1-methyl-imidazo[4,5-c]pyridin-6-yl]amino]phenol]	50 to 100
CS(=O)(=O)c1ccc(Nc2nccc3[nH]c(-c4ccsc4)cc23)cc1 [Compound 268, N-(4-methylsulfonylphenyl)-2-(3-thienyl)-1H-pyrrolo[3,2-c]pyridin-4-amine]	50 to 100
CNc1nc2cnc(Nc3cccc(C)c3)cc2n1Cc1cccnc1 [Compound 564, N2-methyl-N6-(m-tolyl)-1-(3-pyridylmethyl)imidazo[4,5-c]pyridine-2,6-diamine]	50 to 100
CNc1nc2cnc(Nc3ccc(SC)cc3)cc2n1CCOC [Compound 499, 1-(2-methoxyethyl)-N2-methyl-N6-(4-methylsulfanylphenyl)imidazo[4,5-c]pyridine-2,6-diamine]	50 to 100
c1ccc(-c2cc3cnc(Nc4ccc(N5CCOCC5)cc4)cc3[nH]2)cc1 [Compound 176, N-(4-morpholinophenyl)-2-phenyl-1H-pyrrolo[3,2-c]pyridin-6-amine]	50 to 100
COc1ccc(Nc2nccc3c2ncn3C)cc1OC [Compound 447, N-(3,4-dimethoxyphenyl)-1-methyl-imidazo[4,5-c]pyridin-4-amine]	50 to 100

SMILES	Emax [%]
CC(C)c1cccc(Nc2cc3[nH]c(-c4ccc(C(=O)N(C)C)cc4)cc3cn2)c1 [Compound 36, 4-[6-(3-isopropylanilino)-1H-pyrrolo[3,2-c]pyridin-2-yl]-N,N-dimethyl-benzamide]	0 to 30
COc1ccc(Nc2cc3c(cn2)cc(-c2ccc(C(=O)N(C)C)cc2)n3C)cc1O [Compound 54, 4-[6-(3-hydroxy-4-methoxy-anilino)-1-methyl-pyrrolo[3,2-c]pyridin-2-yl]-N,N-dimethyl-benzamide]	50 to 100
CNc1nc2cnc(Nc3cccc(O)c3)cc2n1-c1ccccc1 [Compound 513, 3-[[2-(methylamino)-1-phenyl-imidazo[4,5-c]pyridin-6-yl]amino]phenol]	50 to 100
Cn1c(NCc2ccccc2)nc2cnc(-c3ccccc3)cc21 [Compound 836, N-benzyl-1-methyl-6-phenyl-imidazo[4,5-c]pyridin-2-amine]	30 to 50
c1ccc(-c2nc3c(N4CCOCC4)nccc3[nH]2)cc1 [Compound 338, 4-(2-phenyl-1H-imidazo[4,5-c]pyridin-4-yl)morpholine]	30 to 50
COc1ccc(Nc2cc3c(cn2)nc(-c2ccc(OC)c(OC)c2)n3C)cc1 [Compound 721, 2-(3,4-dimethoxyphenyl)-N-(4-methoxyphenyl)-1-methyl-imidazo[4,5-c]pyridin-6-amine]	50 to 100
Cn1c(Nc2ccccc2)nc2cnc(Nc3cccc(O)c3)cc21 [Compound 638, 3-[(2-anilino-1-methyl-imidazo[4,5-c]pyridin-6-yl)amino]phenol]	50 to 100
COc1ccc(Nc2cc3[nH]c(-c4cccc(F)c4)cc3cn2)cc1O [Compound 11, 5-[[2-(3-fluorophenyl)-1H-pyrrolo[3,2-c]pyridin-6-yl]amino]-2-methoxy-phenol]	30 to 50
COc1cc(Nc2cc3c(cn2)nc(C)n3C)cc(OC)c1OC [Compound 697, 1,2-dimethyl-N-(3,4,5-trimethoxyphenyl)imidazo[4,5-c]pyridin-6-amine]	50 to 100
COc1ccc(Nc2nccc3[nH]c(-c4cccc(OC)c4F)nc23)cc1O [Compound 479, 5-[[2-(2-fluoro-3-methoxy-phenyl)-1H-imidazo[4,5-c]pyridin-4-yl]amino]-2-methoxy-phenol]	> 100
CNc1nc2cnc(-c3ccc(O)c(OC)c3)cc2n1Cc1ccccc1 [Compound 797, 4-[1-benzyl-2-(methylamino)imidazo[4,5-c]pyridin-6-yl]-2-methoxy-phenol]	30 to 50
COc1ccc(OC)c(CCNc2nc3cnc(-c4ccc(O)c(OC)c4)cc3n2C)c1 [Compound 594, 4-[2-[2-(2,5-dimethoxyphenyl)ethylamino]-1-methyl-imidazo[4,5-c]pyridin-6-yl]-2-methoxy-phenol]	30 to 50
CC(=O)Nc1cccc(Nc2nccc3c2cc(-c2ccsc2)n3C)c1 [Compound 287, N-[3-[[1-methyl-2-(3-thienyl)pyrrolo[3,2-c]pyridin-4-yl]amino]phenyl]acetamide]	50 to 100
CC(=O)Nc1cccc(Nc2nccc3c2cc(-c2cccc(F)c2)n3C)c1 [Compound 210, N-[3-[[2-(3-fluorophenyl)-1-methyl-pyrrolo[3,2-c]pyridin-4-yl]amino]phenyl]acetamide]	30 to 50
CNc1nc2cnc(Nc3ccc(OC)nc3)cc2n1-c1cccc(C(F)(F)F)c1 [Compound 546, N6-(6-methoxy-3-pyridyl)-N2-methyl-1-[3-(trifluoromethyl)phenyl]imidazo[4,5-c]pyridine-2,6-diamine]	30 to 50
COc1ccc(Nc2cc3c(cn2)nc(-c2ccc(OC)c(OC)c2)n3C)c(C)c1 [Compound 720, 2-(3,4-dimethoxyphenyl)-N-(4-methoxy-2-methyl-phenyl)-1-methyl-imidazo[4,5-c]pyridin-6-amine]	30 to 50
COc1ccc(OC)c(CCNc2nc3cnc(-c4cc(OC)c(OC)c(OC)c4)cc3n2C)c1 [Compound 593, N-[2-(2,5-dimethoxyphenyl)ethyl]-1-methyl-6-(3,4,5-trimethoxyphenyl)imidazo[4,5-c]pyridin-2-amine]	30 to 50
CC(C)Oc1cccc(Nc2cc3[nH]c(-c4ccc(C(=O)N(C)C)cc4)cc3cn2)c1 [Compound 44, 4-[6-(3-isopropoxyanilino)-1H-pyrrolo[3,2-c]pyridin-2-yl]-N,N-dimethyl-benzamide]	30 to 50

Source: EP2818472A1, “Imidazo[4,5-c]pyridine and pyrrolo[3,2-c]pyridine compounds as G-protein-coupled receptor kinase 5 (GRK5) modulators” (Max-Planck-Gesellschaft zur Förderung der Wissenschaften …, priority 2013, dated 2014)
